Assay results as given in publication PMC6161288, “Bioavailability of Eurycomanone in Its Pure Form and in a Standardised Eurycoma longifolia Water Extract” (Pharmaceutics, 2018).

Assays:
[1] = Pharmacokinetics of eurycomanone (pure compound) in rats (intravenous and oral); assay type: in vivo; settings: male, Wistar, rat, plasma; for AUC(0-t): read-out: AUC0–8
Source text: (§1) The ethical approval for the animal experiments conducted in India was granted from the Animal Ethics Committee, Aurigene Discovery Technologies, Bangalore, India. Eight male Wistar rats (12 weeks old; weighing 250–350 g) and eight Caeserean Derived-1 (CD-1) mice (weighing 20–30 g) were obtained from the Animal House, Aurigene Discovery Technologies, Bangalore, India. They were supplied with standard rodent diets and drinking water ad libitum. Each rodent species (i.e., rats and mice) were divided into two groups. One group (n = 3 for each rodent species) was administered with eurycomanone via the intravenous route (IV) and another group (n = 3 for each rodent species) via the oral route (PO) using oral gavage intubation needle. Two animals of each of the species were used as a control and they received reverse osmosis water. All rats underwent jugular vein cannulation surgery 72 h prior to the administration of the eurycomanone.
(§2) Eurycomanone (rats: 1.5 mg/mL for IV route and 3.0 mg/mL for PO route; mice: 0.5 mg/mL for IV route and 1.0 mg/mL for PO route) samples were prepared fresh on the day of dosing. For the IV administration, eurycomanone was dissolved in 3% NMP and 97% of 10% HPCD in saline. For the oral administration, eurycomanone was dissolved in 3% NMP and 97% of 30% HPCD in saline. Both samples were sonicated before use. The SWE (5 mg/mL for IV route, 10 mg/mL for PO route) was prepared fresh on the day of dosing. For the IV administration, the SWE was dissolved in reverse osmosis water and filtered (0.2 µm pore size) before administration. The SWE for the PO administration was prepared using the same method, except without filtering. The animals were not fasted and doses given were based on the body weights prior to dosing.
(§3) Blood specimens (approximately 0.30–0.40 mL via the jugular vein cannula for rats and 0.10–0.20 mL via submanibular bleeding for mice) were collected at time points 0.083 (IV group only), 0.25, 0.5, 1, 2, 4, 6, and 8 h post-dosing with eurycomanone. At the experiment end point, the animals were euthanized by excess isoflurane inhalation followed by cervical dislocation. In the experiment using SWE, the rats were placed in metabolic cages (Techniplast, West Chester, PA, USA) and blood (approximately 0.30–0.40 mL collected via the jugular vein cannula), urine, and faeces specimens were collected at the same time points with the above plus one additional time point of 24 h. Kidney and liver specimens were collected at necropsy, where the rats were euthanized by CO2 inhalation followed by cervical dislocation. All blood specimens were centrifuged (10,000 rpm, 10 min) to obtain plasma and were stored at −80 °C until processed. Urine and faeces specimens were collected into plastic containers on wet ice while the organ specimens were snap-frozen in liquid nitrogen and maintained at −80 °C until processed.
(§4) Plasma specimens (100 µL), collected from the eurycomanone experiment were added with the internal standard solution (10 µL). Plasma proteins were precipitated with ACN (300 µL), vortex-mixed for 5 min, and centrifuged at 4000 rpm for 7 min. The supernatant was collected and evaporated using a nitrogen evaporator for 20 min at 50 °C. Thereafter, they were reconstituted with the mobile phase (500 µL) and transferred into LC-MS vials for analysis.
(§5) Eurycomanone detection in the pure eurycomanone experiments was done via the LC-MS/MS system consisting of an Agilent 1260 Infinity HPLC system and an AB SCIEX API 4000™ Triple-Quadrupole mass spectrometer equipped with TurboIonSpray® probe and atmospheric pressure chemical ionization (APCI) (AB Sciex LLC, Framingham, MA, USA). Electrospray ionization (ESI) was performed in positive ion mode. The analytical column was Agilent Zorbax Eclipse-C18 (4.6 mm I.D. × 150 mm, 3.5 µm). The mobile phase consisted of 0.1% formic acid (solvent A) and 90% ACN with 0.1% formic acid (solvent B). […]

[2] = Pharmacokinetics of eurycomanone in mice (intravenous and oral); assay type: in vivo, CD-1 mice; settings: plasma; for AUC(0-t): read-out: AUC0–8
Source text: as §1, §2, §3, §4, §5

[3] = Plasma protein binding (rapid equilibrium dialysis), monkey; assay type: in vitro ADME; settings: pH 7.4, 37 °C, read-out: percentage bound to plasma protein (converted)
Description: (§6) The ability of eurycomanone to bind plasma protein was analysed in five types of plasma (mice, rat, dog, monkey, and human). Each type of plasma was spiked with eurycomanone (1 mM) to make the 10 µM test concentration of eurycomanone in the plasma. Equilibrium dialysis buffer (500 µL) at pH 7.4 was added to the right chamber in rapid equilibrium dialysis (RED), while the spiked plasma (300 µL) was added to the left chamber. The Teflon base plate was covered with aluminium foil and left on the shaking incubator at 37 °C for 4 h. The matrix was balanced by mixing 100 µL of the equilibrium buffer with the spiked plasma from the left chamber in RED before adding the stop solution (350 µL) to precipitate out the protein. The supernatant (10,000 rpm, 10 min, 4 °C) was collected and analysed using LC-MS/MS. The standards (propranolol, warfarin, and acebutalol) were analysed in duplicates.

Plasma stability, mice = assay type: in vitro ADME; settings: 5 µM, 37 °C, up to 4 h, compared with human, rat and dog plasma
Description: (§7) The plasma stability was estimated by preparing 5 µM of eurycomanone in 600 µL plasma in triplicates. The plasma stability of eurycomanone was determined in five types of plasma (mice, rat, dog, monkey, and human). The reaction was kept at 37 °C and ACN (100 µL) was added at timepoints 0, 30 min, and 1, 2, and 4 h to the reaction mixture (100 µL). The supernatant (10,000 rpm, 10 min, 4 °C) was collected and analysed by LC-MS/MS. The standards (propantheline bromide and enalapril) were analysed in triplicates.

Plasma stability, monkey = assay type: in vitro ADME; settings: 5 µM, 37 °C, up to 4 h, compared with human, rat and dog plasma
Description: as §7

[4] = Plasma protein binding (rapid equilibrium dialysis), dog; assay type: in vitro ADME; settings: pH 7.4, 37 °C, read-out: percentage bound to plasma protein (converted)
Description: as §6

[5] = Parallel artificial membrane permeability assay (PAMPA); assay type: in vitro ADME; settings: pH 7.4, 18 h, room temperature, read-out: permeation through artificial membrane (PAMPA)
Description: Eurycomanone was added to Pion buffer (Pion Inc., Billerica, MA, USA) pH 7.4 to make a 10 µM working solution. Five microlitres of the lipid mix was applied on the membrane and allowed to dry for 10 min. The working solution (200 µL) was added to the donor plate and Pion buffer (200 µL) were added to the receiver plate. The plate was kept in a moist chamber and left for 18 h at room temperature. The solution from both the donor and receiver plate and the working solution was analysed using LC-MS/MS. This test was carried out in triplicates using propranolol, atenolol, and carbamazepine as standards. The test concentration for eurycomanone is […].

## C=C1[C@@H](O)[C@]2(O)OC[C@]34[C@H]2[C@@]2(C)[C@H](O)C(=O)C=C(C)[C@@H]2C[C@H]3OC(=O)[C@H](O)[C@@]14O [Eurycomanone]
[1]; 3 mg/kg intravenous
  AUC(0-t): 970 ng·h/mL
[1]; 30 mg/kg oral
  AUC(0-t): 1150 ng·h/mL
[1]; 30 mg/kg oral, read-out: Observed Cmax
  Cmax: 238 ng/mL
[1]; 3 mg/kg intravenous, read-out: Half-life (t1/2) (converted)
  half-life: 0.3 h
[1]; 3 mg/kg intravenous, read-out: Plasma Clearance (CL) (converted)
  clearance: 45.7 mL/min/kg
[1]; 3 mg/kg intravenous, read-out: Volume of Distribution at Steady State (Vss)
  Vd: 0.95 L/kg
[1]; 30 mg/kg oral vs 3 mg/kg intravenous, read-out: Bioavailability (F)
  bioavailability: 11.8%
[1]; 30 mg/kg oral, read-out: Observed Tmax
  Tmax: 2 h
[2]; 10 mg/kg oral, 10 mg/kg
  Observed Cmax: 334.7 ng/mL
[2]; CD-1, mouse, 1 mg/kg intravenous
  AUC(0-t): 221 ng·h/mL
[2]; CD-1, mouse, 10 mg/kg oral
  AUC(0-t): 1210 ng·h/mL
[2]; CD-1, mouse, 1 mg/kg intravenous, read-out: Half-life (t1/2) (converted)
  half-life: 0.3 h
[2]; CD-1, mouse, 1 mg/kg intravenous, read-out: Plasma Clearance (CL) (converted)
  clearance: 64.2 mL/min/kg
[2]; CD-1, mouse, 1 mg/kg intravenous, read-out: Volume of Distribution at Steady State (Vss)
  Vd: 1.51 L/kg
[2]; CD-1, mouse, 10 mg/kg oral vs 1 mg/kg intravenous, read-out: Bioavailability (F)
  bioavailability: 54.9%
[2]; CD-1, mouse, 10 mg/kg oral, read-out: Observed Tmax
  Tmax: 2 h
[2]; CD-1, mouse, po, 10 mg/kg, 10 mg/kg oral, read-out: Observed Cmax
  Cmax: 335 ng/mL
[3]
  fraction unbound at 4 h, 10 µM: 0.646
Plasma stability, mice
  plasma stability: slightly lower
Plasma stability, monkey
  plasma stability: slightly lower
[4]
  fraction unbound at 4 h, 10 µM: 0.322
[5]
  Papp at 18 h, 25 µM: 0.78 ×10⁻⁶ cm/s
